Measured values from patent publication US12539284B2, “Aminoxy acid-based anti-cancer stem cell compounds and methods thereof” (Westlake University, priority 2019, dated 2026).
“Also recorded” adds a separate entry of the source. Where two headings read alike, the source gives them in different places.

Tests used:
HEY A8 CSCs [1] = test: Immunoblotting of autophagy associated proteins P62 and LC3; format: cell-based, human; conditions: 24 h; CSCs at 10-fold lower concentration than cancer cells
Description: HEY A8 cancer cells and CSCs were treated with compound sff-2-112 (“Example 1”) or sff-2-132 (“Example 4”) for 24 h. Then cells were washed twice with PBS buffer and lysed for immuno-staining. The immunostaining methods were as same as it described in Example 10.

HEY A8 CSCs [2] = test: In vivo tumor seeding ability of pretreated HEY A8 CSCs; conditions: CSCs pretreated 2 days in vitro, 10^6 cells injected subcutaneously in mice, 25 days
Description: In vivo tumor seeding ability of cells after treatment with compound sff-2-112 (“Example 1”) or sff-2-132 (“Example 4”) was evaluated. Taxol was used as a negative control. For this experiment, HEY A8 CSCs were pretreated with sff-2-112 (“Example 1”), sff-2-132 (“Example 4”) or Taxol for 2 days in suspension medium, respectively. Then cells were allowed to proliferate in full medium in the absence of drugs for 10 days. After that, 10^6 cells were injected into mice subcutaneously. Tumor size was measured for 25 days after injection.

Adherent Hey A8 cells = test: Cell respiration, oxygen consumption rate (Seahorse XF24); format: cell-based, human; conditions: FIG. 10; for cell respiration response to subsequent addition of FCCP, antimycin A and rotenone: more obvious at higher doses
Description: Cell respiration was measured by using an XF24 Extracellular Flux Analyzer (Seahorse, Bioscience), which measures the oxygen consumption rate (OCR). Adherent Hey A8 cells were seeded at 50000 cells/well in […] of their culture medium and incubated for 24 h at 37° C. in humidified atmosphere with 5% CO2. The medium was then replaced with 670 μL/well of high-glucose DMEM without serum and supplemented with 1 mM sodium pyruvate and 2 mM L-glutamine. The oxygen consumption rate (OCR) was measured with an extracellular flux analyzer (Seahorse) at preset time intervals upon the preprogrammed additions of the following compounds: Oligomycin to 1 μM, FCCP to 500 nM, Antimycin A and Rotenone to 0.5 μM final concentrations.

SKOV3 cancer cells = test: Cell viability (CellTiter-Glo) on adherent SKOV3 cancer cells; format: cell-based, human
Description: Cell Cultures Human ovarian carcinoma cell lines HEY A8 and SKOV3 were gifts from Professor Alice Wong's group (The University of Hong Kong). Cells were grown in Dulbecco's Modified Eagle (DMEM) medium supplemented with 10% FBS and 1% penicillin/streptomycin at 37° C. in a humidified atmosphere containing […] CO2. Isolation and culture of spheres were performed in serum-free stem-cell-selective condition as described in literature Ip etl. Oncogene 2014, 5, 9133-9149. Briefly, 1-2 weeks after plating, non-adherent spherical clusters of cells could be observed and were separated from single cells by low speed centrifugation. After 8th to 10th passages, the non-adherent spherical clusters of cells appeared as distinct spheres. Using this selection condition, HEY A8 spheres (HEY A8 SP) or SKOV3 spheres (SKOV3 SP) could be enzymatically dissociated and reformed into spheres within 3 days under stem-cell-selective condition. To allow differentiation, dissociated sphere cells were plated on tissue culture plates in medium (MCDB 105:M199=1:1) supplemented with 10% FBS and 1% PS.
HEY A8 or SKOV3 cancer Cells were plated in triplicate in 0.1 mL full medium in 96-well plates for 24 h. After that, the medium was changed to the fresh prepared medium with various concentrations of compounds. Cells were incubated for another 48 h. Then the cell viability was measured by CellTiter-Glo® Luminescent Cell Viability reagent according to the manufacture's instruction. The luminescence at 550 nm was measured using a microplate reader (SpectraMax 340PC 384, Molecular Devices).

HEY A8 cells = test: Mitochondrial membrane potential (JC-1 red to green ratio); format: cell-based, human; conditions: for mitochondrial membrane potential, kinetic study: 10 μM added at 180 s, image interval 30 s; for mitochondrial membrane potential depolarization: treated 10 min, FIG. 8a
Description: A suspension of HEY A8 cells at the concentration of 5×10^4 cells/mL in DMEM medium were seeded into 30-mm cell culture dishes with glass bottom (MatTek). Cells were incubated at 37° C. in a humidified atmosphere containing 5% CO2 for 24 h. Medium was aspirated and cells was washed with PBS buffer twice. Then 1 mL HBSS buffer containing 2.5 μM JC-1 was added. Cells were incubated at 37° C. for 20 min before the buffer was aspirated. Cells were washed with PBS buffer twice and treated with cation transporters for 10 min. Fluorescence was monitored by confocal imaging with ZEISS LSM 780 (Red channel: λex=543 nm, Green channel: λex=488 nm). Quantitative data were obtained using the ZEN and Graph Pad Prism software packages.
The Kinetic study of this compound on the MMP in HEY A8 cells was also conducted. Compound sff-2-112 (“Example 1”) or sff-2-132 (“Example 4”) at the final concentration of 10 μM was added at 180 s. The interval for each image was 30 s. The decrease in red to green fluorescence ratio of JC-1 indicates MMP depolarization.

HEY A8 cancer cells = test: Apoptosis, Annexin V / PI flow cytometry, cancer cells; format: cell-based, human; conditions: 30 μM, 2 days
Description: A suspension of HEY A8 cells at the concentration of 5×10^4 cells/mL in DMEM medium were seeded into 60-mm cell culture dishes. Cells were incubated at 37° C. in a humidified atmosphere containing 5% CO2 for 24 h followed by the addition of 4 mL fresh medium or medium containing compound sff-2-112 (“Example 1”) or sff-2-132 (“Example 4”) at different concentration. […] After 2 days, the medium was aspirated and cells were washed with cold PBS twice, and then stained with PI and Annexin V according to the manufacture's instruction (Dead Cell Apoptosis Kit with Annexin V Alexa Fluor™ 488 & Propidium Iodide, Thermo Fisher). Cells were analyzed by flow cytometry (BD FACS CantoII Analyzer).

MDCK = test: Toxicity against normal cell line MDCK; format: cell-based
Source text: (§1) Fourteen compounds including aminoxy acid monomers and dipeptides have been identified to show toxicity against HEY A8 CSCs. The half maximal inhibitory concentration (IC50) values of compounds sff-2-112, sff-2-124, sff-2-132 and sff-2-100 towards adherent cancer HEY A8, SKOV3 cells and CSCs were further determined. […] Especially compound sff-2-132, its selectivity to CSCs is up to 60-fold higher than that to cancer cells. Their toxicity against other normal cell lines NIH3T3, HEK293 and MDCK were also tested and the IC50 values were summarized in Table 1.

NIH3T3 = test: Toxicity against normal cell line NIH3T3; format: cell-based
Source text: as §1

SMILES | LC3-II and p62 levels (autophagy suppression) (HEY A8 CSCs [1]) | tumor-seeding ability / tumor size of pretreated cells (HEY A8 CSCs [2]) | OCR after addition of compound (Adherent Hey A8 cells) | cell respiration response to subsequent addition of FCCP, antimycin A and rotenone (Adherent Hey A8 cells) | IC50 (SKOV3 cancer cells; 48 h incubation) | mitochondrial membrane potential, kinetic study (HEY A8 cells) | mitochondrial membrane potential depolarization (HEY A8 cells) | Annexin V positive cells, cancer cells (HEY A8 cancer cells) | IC50 (MDCK) | IC50 (NIH3T3) | IC50 (SKOV3 cancer cells; Homo sapiens, SK-OV-3, 48 h incubation) | IC50 (MDCK; Canis lupus familiaris, MDCK) | IC50 (NIH3T3; Mus musculus, NIH3T3)
O=C(NO[C@H](COCc1ccccc1)C(=O)Nc1ccccc1)c1cc(C(F)(F)F)cc(C(F)(F)F)c1 [sff-2-112] | Increased levels of both LC3-II and p62 in CSCs | significant decrease in tumor-seeding ability; also recorded: significantly decreased tumor size | OCR immediately increased | significantly decreased | 42.1 ± 5.2 µM | MMP depolarized immediately | effectively depolarize mitochondrial membrane potential (MMP) of HEY A8 cells in a dose dependent manner | 8.21% | 25.1 ± 1.1 µM | 30.5 ± 1.1 µM | – | – | –
CC(C)(C)OC(=O)[C@@H](COCc1ccccc1)ONC(=O)c1cc(C(F)(F)F)cc(C(F)(F)F)c1 [sff-2-132] | Increased levels of both LC3-II and p62 in CSCs | significant decrease in tumor-seeding ability; also recorded: significantly decreased tumor size | OCR immediately increased | significantly decreased | – | MMP depolarized immediately | effectively depolarize mitochondrial membrane potential (MMP) of HEY A8 cells in a dose dependent manner | 1.30% | – | – | 63.4 ± 8.9 µM | 49.1 ± 0.4 µM | 58 ± 2.2 µM
